Key:
[1] = tested on: panel of 60 human cancer cell lines; experiment: NCI/DTP in vitro anticancer screen, 60 cell lines; format: cell-based; details: NCI panel of 60 human cancer cell lines, value per compound (FIG. 10A)
Method: The twenty-three compounds of Formula I shown below were evaluated for their antiproliferative effects in a panel of 60 human cancer cell lines as part of the in vitro anticancer screening services provided by the DTP (Developmental Therapeutics Program) of the US National Cancer Institute (NCI) U.S. National Cancer Institute (NCI) of the National Institutes of Health (NIH) in […], Md.
The NCI conducts a standard 48/72 hour 60 cell line assay and an in vitro time course assay as described in Alley et al. (Cancer Res (1988) 48:589). In the standard 60 cell line assay, a minimum of 5 concentrations of the test compound are tested at 10-fold dilutions against 60 cell lines and cell growth is assayed at 48 and 72 hours using a sulphorhodamine B assay. For the time course analysis, tumour cells are treated with the test compound at various time points, then washed and grown in medium free of the test compound until the end of the experiment at 144 hrs. This assay employs 20% FBS to better approximate the minimum c×t (concentrations and times) test compound exposure conditions that are required to achieve activity in vivo. Cell growth is quantified by an MTT assay (similar to the XTT assay described above) and the concentration of the test compound required for growth inhibition is determined. […]

[2] = tested on: Saccharmyces cerevisiae strains that have mutations in genes related to cell cycle control and DNA repair damage; details: panel of six yeast strains, single concentration; NCI/DTP data; cited from earlier work
[3] = NCI/DTP data; cited from earlier work
[4] = tested on: HT29 colon adenocarcinoma cells; experiment: morphological changes (vacuoles), HT29; format: cell-based, human; details: treatment for 24 hours
Description: These vacuoles are not formed in DMSO- or doxorubicin-treated cells. Moreover, the nuclear membrane is no longer evident in the phase-contrast images of cells treated with compound 45, even though the nucleus is still intact, as shown by DAPI staining.

Cc1[nH]c2ccccc2c1-c1nc2c3cccnc3c3ncccc3c2[nH]1 [Compound 90]
GI50 (growth inhibition by 50%) [1]: most effective compound

Cc1ccccc1-c1nc2c3ccccc3c3ccccc3c2[nH]1 [NCI #338970]
activity in Stage0 testing in the Yeast Anticancer Drug Screen [2]: active
activity in the In Vivo Anticancer Drug Screen [3]: None of these three compounds showed any activity

COc1cccc2c1C(=O)c1c(O)c3c(c(O)c1C2=O)C[C@@](O)(C(=O)CO)C[C@@H]3O[C@H]1C[C@H](N)[C@H](O)[C@H](C)O1 [doxorubicin, reference compound]
formation of vacuoles [4]: not formed

Reference: patent publication US10080739B2, “Aryl imidazoles and their use as anti-cancer agents” (Aptose Biosciences Inc., priority 2003, dated 2018)
